Data from publication PMC12540872 (Nature Communications, 2025).

Target: MMOH (hydroxylase of soluble methane monooxygenase, sMMO)
Assay: isothermal titration calorimetry
Format: binding, Methylosinus trichosporium
Conditions: enthalpically driven; surface site near K323 proposed

## O=C1OC2(c3cc(I)c(O)c(I)c3Oc3c2cc(I)c(O)c3I)c2c(Cl)c(Cl)c(Cl)c(Cl)c21 [RB, rose bengal]
  Kd: 9.23 ± 1.3 µM
